Measured values from patent US10328161B2, “Luciferin derivatives from bicyclic reactants and aminothiol derivatives and methods of use thereof” (The Regents of the University of California, priority 2012, dated 2019).
Blank lines part the entries; values can stand above or below the compound they belong to.

What was measured:
[1] = Exogenous H2O2 experiments in mice; assay type: in vivo; details: for Turn-on: PCL-1 0.5 μmol
Source text: (§1) A Xenogen IVIS Spectrum instrument (Caliper Life Sciences, Hopkinton, Mass.) was used for bioluminescent imaging in all animal experiments. Mice were anesthetized prior to injection and during imaging via inhalation of isoflurane. Phosphate Buffered Saline (PBS) was purchased from Thermo Fisher Scientific (Waltham, Mass.), and saline (0.9%) was made from sodium chloride and Millipore water. Isoflurane was purchased from Phoenix Pharmaceuticals, Inc. (St. Joseph, Mo.), and pharmaceutical grade DMSO was purchased from Sigma-Aldrich (St. Louis, Mo.). Medical grade oxygen was purchased from Praxair (Danbury, Conn.).
(§2) FVB-luc^+ (FVB-Tg(CAG-luc,-GFP)L2G85Chco/J) mice were bred at UC Berkeley, and were single or group-housed on a 12:12 light-dark cycle at 22° C. with free access to food and water. All studies were approved and performed according to the guidelines of the Animal Care and Use Committee of the University of California, Berkeley.
Unshaven, male FVB-luc^+ mice were anesthetized with isoflurane and injected IP with a mixture of PCL-2 and D-cysteine (0.05 μmol each, in 50 μL of 1:1 DMSO:PBS), followed immediately by an IP injection of H2O2 (0-4.5 μmol in 100 μL of PBS). Control mice were injected IP with a mixture of HCBT and D-cysteine (0.01 μmol each, in 50 μL of 1:1 DMSO:PBS) immediately prior to H2O2 (4.5 μmol in 100 μL of PBS). Following injections, mice were imaged with an IVIS Spectrum.

[2] = Lipopolysaccharide inflammation model, H2O2 detection with PCL-2; assay type: in vivo, mice; details: apocynin 10 mg/kg IP, LPS-treated mice
Source text: as §1, §2
Unshaven, female FVB-luc^+ mice, aged 2-5 months, were anesthetized with isoflurane and injected IP with lipopolysaccharides (LPS, 3 mg/kg in 50 μL of saline) or saline (50 μL). For studies with PCL-2 alone, mice were injected IP with either apocynin (10 mg/kg in 20 μL of DMSO) or DMSO (20 μL) 6 h after LPS injection. […]

FVB-luc^+ mice = assay: Control: effect of inhibitors and antioxidants on HCBT and D-cysteine luciferin signal in mice; assay type: in vivo
Protocol: (a) Total photon fluxes, 0-15 min post-injection, for mice (n=3) injected with apocynin (IP, 10 mg/kg in 20 μL DMSO) or vehicle (IP, 20 μL DMSO) two min prior to injections of a mixture of HCBT and D-cysteine (IP, 0.01 μmol each, in 50 μL of 1:1 DMSO:PBS). (b) Total photon fluxes, 15-45 min post-injection, for mice (n=3) injected with z-VD(OMe)-OPh (IP, 1 μmol in 20 μL DMSO) or vehicle (IP, 20 μL DMSO) 30 min prior to injections of a mixture of HCBT and D-cysteine (IP, 0.01 μmol each, in 50 μL of 1:1 DMSO:PBS). Error bars are ±SEM.
FIG. 18 depicts bioluminescent signals from HCBT and D-cysteine with ascorbic acid in FVB-luc^+ mice. Total photon fluxes, 30-60 min post-injection, for mice (n=3-4) injected with ascorbic acid (IP, 200 mg/kg in 30 μL saline) or vehicle (IP, 30 μL saline) 4.5 h prior to injections of a mixture of HCBT and D-cysteine (IP, 0.01 μmol each, in 50 μL of 1:1 DMSO:PBS). Error bars are ±SEM.

caspase 8 = molecular target: T1, caspase 8 (Homo sapiens, UniProt Q14790); assay: Selectivity assay for IETDC: caspase 8; assay type: biochemical
T1 construct: purchased Sigma-Aldrich
Protocol: (§3) Millipore water was used to prepare all aqueous solutions. Luciferase (100 μg/mL) in 50 mM Tris buffer, pH 7.4, with 10 mM MgCl2, 0.1 mM ZnCl2, and 2 mM ATP was added to selectivity assay samples (described below) to determine the relative amount of luciferin formed during incubation. Measurements for bioluminescent assays were performed at 37° C. and were recorded using a Molecular Devices SpectraMax M2 plate reader (Sunnyvale, Calif.). Samples for bioluminescent measurements were placed in white, opaque 96-well plates, which were purchased from Corning Inc. (Corning, N.Y.). ATP was purchased from MP Biomedicals (Solon, Ohio) or Sigma-Aldrich (St. Louis, Mo.), and luciferase was purchased from Promega (Madison, Wis.). Caspase enzymes were purchased from Sigma-Aldrich (St. Louis, Mo.), and caspase inhibitors were purchased from MP Biomedicals (Solon, Ohio).
For determination of caspase selectivity, various caspases (3 and 8:1 unit, 9:0.001 unit) were administered to IETDC or D-cysteine (5 μM) in Tris buffer (50 mM, pH 7.4). […] After each enzyme was incubated with IETDC or D-cysteine for 60 min, 100 μL of a Tris buffer (50 mM, pH 7.4) containing luciferase (100 μg/mL), 10 mM MgCl2, 0.1 mM ZnCl2, and 2 mM ATP was added to 100 μL of the IETDC or D-cysteine solutions and the bioluminescent signal was detected.

[3] = Selectivity assays for dual H2O2 and caspase 8 detection in vitro; assay type: biochemical; details: for effect of a single inhibitor on the dual-analyte signal: catalase 1 unit or Q-VD-OPh 10 μM, with H2O2 and caspase 8; for effect of both inhibitors together on the dual-analyte signal: catalase 1 unit plus Q-VD-OPh 10 μM combined; for interference with in situ luciferin formation from HCBT and D-cysteine: catalase 1 unit, Q-VD-OPh 10 μM
Protocol: as §3
To quench H2O2 immediately, catalase (1 unit) was subsequently added to some of the solutions. After 60 min, catalase (1 unit) was added to all other solutions containing H2O2 to quench any remaining H2O2. Subsequently, caspase 8 (1 unit) was added to the solutions in the presence or absence of the caspase inhibitor, Q-VD-OPh (10 μM), 15 min prior to IETDC (10 μM) or D-cysteine (5 μM) addition. Following IETDC or D-cysteine addition, the solutions were incubated for 60 min. Additionally, dithiothreitol (1 mM) was added to all solutions at the time of caspase 8 addition to maintain the reduced state of the D-cysteine. To monitor luciferin formation, 100 μL of a Tris buffer (50 mM, pH 7.4) containing luciferase (100 μg/mL), 10 mM MgCl2, 0.1 mM ZnCl2, and 2 mM ATP was added to 100 μL of the PCL-2/IETDC or HCBT/D-cysteine solutions and the bioluminescent signal was detected.

H2O2 and caspase 8 = assay: Lipopolysaccharide inflammation model, dual detection with PCL-2 and IETDC; assay type: in vivo; details: ascorbic acid 200 mg/kg and z-VD-OPh 1 μmol used together, LPS-treated mice
Source text: as §1, §2
For studies with PCL-2 and IETDC, mice were injected IP with ascorbic acid (200 mg/kg in 30 μL of saline) or the saline vehicle (30 μL) 30 min prior to IP injection of LPS (3 mg/kg in 50 μL of saline) or saline (50 μL). Two hours after injection of LPS, z-VD(OMe)-OPh (1 μmol in 20 μL of DMSO) or the vehicle, DMSO (20 μL), was injected IP. […]

PC3M-luc cells [4] = assay: Comparison of in situ luciferin formation and luciferin in PC3M-luc cells (intact and lysed); assay type: cell-based; details: inferred from intact versus lysed PC3M-luc cells
Protocol: (§4) A Xenogen IVIS Spectrum instrument (Caliper Life Sciences, Hopkinton, Mass.) was used for bioluminescent imaging in all cellular experiments. PC3M-luc cells (kindly provided by Chris Contag, Stanford University) were cultured in Dulbecco's Modified Eagle Medium (DMEM) containing 10% Fetal Bovine Serum (FBS). Prior to assaying, cells were passed and plated (1.3-1.5×10^4 cells/well) in black 96-well plates with clear bottoms (Becton Dickinson and Company, Franklin Lakes, N.J.). Once the cells were ca. 95% confluent, reagents were added for bioluminescent assays.
PC3M-luc cells prepared as described above were washed with HBSS (25 mM glucose) prior to addition of HCBT and D-cysteine (0-500 μM, 1% DMSO) or luciferin (0-500 μM, 1% DMSO) in HBSS (25 mM glucose). For experiments with lysed cells, 100 μL Glo lysis buffer (Promega, Madison, Wis.) was incubated with the PC3M-luc cells for 5 min prior to addition of HCBT and D-cysteine or luciferin. The plates were immediately imaged for 2 h to determine the peak bioluminescent signal produced.

PC3M-luc cells [5] = assay: Lifetime of HCBT and D-cysteine in PC3M-luc cells; assay type: cell-based; details: 100 μM, 30 min incubation, wash, complementary reagent after 0-60 min
Protocol: as §4
The medium was removed from PC3M-luc cells prepared as described above, and HCBT (100 μM, 1% DMSO) or D-cysteine (100 μM, 1% PBS) in DMEM (-FBS) was added. After a 30 min incubation, the HCBT or D-cysteine was removed, the cells were washed with DMEM (-FBS), and fresh DMEM was added. After 0, 15, 30, 45, or 60 min, the second component of luciferin, D-cysteine (100 μM final concentration, 1% PBS) or HCBT (100 μM final concentration, 1% DMSO) in HBSS (25 mM glucose) was added, and the plate was immediately imaged for 2 h to determine the peak bioluminescent signal produced.

[6] = Selectivity assay for PCL-2: response to H2O2; assay type: biochemical; details: H2O2 100 μM and catalase 0.4 mg/mL
Protocol: as §3
Various ROS (100 μM) were administered to PCL-2 or HCBT (5 μM) in Tris buffer (50 mM, pH 7.4) with or without 10 mM MgCl2 and 0.1 mM ZnCl2. […] After an additional 15 min incubation, 100 μL of a Tris buffer (50 mM, pH 7.4) containing luciferase (100 μg/mL), 10 mM MgCl2, 0.1 mM ZnCl2, and 2 mM ATP was added to 100 μL of the PCL-2 or HCBT solutions and the bioluminescent signal was detected.

T1 sequence (Q14790 217-374 limits assumed, species assumed): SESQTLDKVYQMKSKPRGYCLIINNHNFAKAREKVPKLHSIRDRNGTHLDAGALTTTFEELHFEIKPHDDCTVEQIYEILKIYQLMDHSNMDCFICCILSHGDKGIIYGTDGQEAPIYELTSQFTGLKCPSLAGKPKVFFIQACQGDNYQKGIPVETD
T1 sequence (Q14790 385-479 limits assumed, species assumed): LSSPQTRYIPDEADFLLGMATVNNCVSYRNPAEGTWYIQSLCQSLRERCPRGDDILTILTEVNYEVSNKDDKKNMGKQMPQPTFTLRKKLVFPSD

Compound: O=C(O)[C@H]1CSC(c2nc3ccc(OCc4ccc(B(O)O)cc4)cc3s2)=N1 [PCL-1]
Turn-on ([1]; H2O2 0.037 μmol): 1.5-fold
Turn-on ([1]; H2O2 0.15 μmol): 2.0-fold
Turn-on ([1]; H2O2 0.6 μmol): 2.7-fold
detection limit for H2O2 in vivo ([1]; IP, FVB-luc^+ mice, optimized imaging conditions for each probe): 0.037 µmol

Compound: COc1cc(C(C)=O)ccc1O [apocynin]
reduction in PCL-2 signal upon treatment [2]: 55%
effect on the luciferin signal from HCBT and D-cysteine in vivo (FVB-luc^+ mice; apocynin 10 mg/kg or z-VD-OPh 1 μmol IP, HCBT and D-cysteine 0.01 μmol each): do not alter the luciferin signal

Compound: O=C1O[C@H]([C@@H](O)CO)C(O)=C1O [ascorbic acid]
decrease in dual-probe bioluminescent signal (H2O2 and caspase 8): 30%
effect on the bioluminescent signal from HCBT and D-cysteine (FVB-luc^+ mice; ascorbic acid 200 mg/kg IP 4.5 h before HCBT and D-cysteine 0.01 μmol each): did not impact the bioluminescent signal

Second part, led by results:

effect of caspase inhibitor on the response of IETDC to caspase 8 (caspase 8; Q-VD-OPh 10 μM): complete attenuation
effect of a single inhibitor on the dual-analyte signal [3]: attenuated the increase in signal
effect of both inhibitors together on the dual-analyte signal [3]: complete attenuation of signal
Compound: CC(C)[C@H](NC(=O)c1ccc2ccccc2n1)C(=O)N[C@@H](CC(=O)O)C(=O)COc1c(F)cccc1F [Q-VD-OPh]
interference with in situ luciferin formation from HCBT and D-cysteine [3]: did not interfere with in situ luciferin formation

permeability across the cell membrane compared to luciferin (PC3M-luc cells [4]): increased permeability
change in bioluminescent signal on incubation with caspase enzymes (caspase 8; D-cysteine 5 μM with HCBT, caspases 8, 3, 9): no change in bioluminescent signal
Compound: N[C@H](CS)C(=O)O [D-cysteine]
cellular lifetime: signal as time between removal and addition of the complementary reagent increases (PC3M-luc cells [5]): still fully available for reaction with HCBT

effect of catalase on the H2O2 turn-on signal of PCL-2 [6]: attenuated
effect of a single inhibitor on the dual-analyte signal [3]: attenuated the increase in signal
effect of both inhibitors together on the dual-analyte signal [3]: complete attenuation of signal
Compound: catalase
interference with in situ luciferin formation from HCBT and D-cysteine [3]: did not interfere with in situ luciferin formation
